From patent publication US10253081B2, “Glucagon analogues” (Zealand Pharma A/S, priority 2012, dated 2019)
pEC50: −log10 of the molar value. *1 amine or outer side, *2 acyl side, *3 side chain or, on linkers, in order; H or OH if unused. Where a SMILES comes first, the peptide text is derived from it. Side-chain parts run from the residue outwards. [ ]: non-standard residue; d: D form. The star is where a group is joined. γGlu = O=C(O)[C@H](CCC(=O)[*:2])N[*:1]; Palmitoyl = CCCCCCCCCCCCCCCC(=O)*; Aib = CC(C)(N)C(=O)O

Tests used:
[1] = target: T1, human glucagon receptor (Glucagon-R) (Homo sapiens, UniProt P47871); assay: Glucagon receptor efficacy assay (cAMP AlphaScreen, CHO cells); assay type: cell-based; conditions: Table 1A; CHO cells expressing human Glucagon-R, cAMP; read-out: EC50 hGCGR CHO-K1
T1 construct: expressed in transfected cells
Procedure, shortened: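 Stably transfected CHO clones expressing human GLP-1R or glucagon receptor were treated with increasing peptide concentrations for 15 min at room temperature in KRBH containing 0.1 mM IBMX. After lysis, cAMP was quantified by AlphaScreen; EC50 and efficacy relative to GLP-1 or glucagon reference came from curve fitting.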

[2] = target: T2, endogenous GLP-1 receptors (Mus musculus, UniProt O35659); assay: Agonistic activity on endogenous GLP-1 receptor (cAMP, murine insulinoma cell line); assay type: cell-based; conditions: intracellular cAMP, 15 minutes at 26° C.; read-out: EC50 GLP-1R (murine insulinoma cells)
T2 construct: Agonistic activity of the test compounds on endogenous GLP-1 receptors; endogenous in cells
T2 sequence (O35659 22-463): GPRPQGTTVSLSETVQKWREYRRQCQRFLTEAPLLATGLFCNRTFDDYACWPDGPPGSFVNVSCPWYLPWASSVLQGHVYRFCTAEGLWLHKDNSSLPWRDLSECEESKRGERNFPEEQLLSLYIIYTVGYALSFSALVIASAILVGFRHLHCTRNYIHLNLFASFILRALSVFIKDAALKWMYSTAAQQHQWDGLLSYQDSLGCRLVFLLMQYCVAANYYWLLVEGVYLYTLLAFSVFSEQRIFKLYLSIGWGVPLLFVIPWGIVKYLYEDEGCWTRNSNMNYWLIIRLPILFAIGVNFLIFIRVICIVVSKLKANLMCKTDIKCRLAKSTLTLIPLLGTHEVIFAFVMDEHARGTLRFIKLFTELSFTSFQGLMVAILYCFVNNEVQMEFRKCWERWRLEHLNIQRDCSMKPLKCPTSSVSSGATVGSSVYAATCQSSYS
Procedure, shortened: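 Murine insulinoma cells were exposed 15 min at 26° C in KRBH with 0.1% DMSO to compound or GLP-1 ([…]), then cAMP was measured by AlphaScreen against a standard curve, in quadruplicate. pEC50 came from curve fits; % CTL was normalised to the maximal GLP-1 cAMP response.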

T1 sequence (P47871 26-477): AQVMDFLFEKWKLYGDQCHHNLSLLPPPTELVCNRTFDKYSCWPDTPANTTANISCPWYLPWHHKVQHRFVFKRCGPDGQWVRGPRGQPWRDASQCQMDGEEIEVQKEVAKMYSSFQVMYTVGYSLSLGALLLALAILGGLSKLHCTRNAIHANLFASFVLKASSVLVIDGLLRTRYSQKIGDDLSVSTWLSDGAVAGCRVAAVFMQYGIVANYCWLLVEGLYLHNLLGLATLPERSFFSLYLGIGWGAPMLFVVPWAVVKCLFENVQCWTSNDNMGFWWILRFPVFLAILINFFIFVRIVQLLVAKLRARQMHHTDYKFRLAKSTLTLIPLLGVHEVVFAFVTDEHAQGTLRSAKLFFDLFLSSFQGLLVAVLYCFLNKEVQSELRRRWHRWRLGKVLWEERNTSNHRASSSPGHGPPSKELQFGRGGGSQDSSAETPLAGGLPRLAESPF

Structure (SMILES) | pEC50 [1] | pEC50 [2]
CCCCCCCCCCCCCCCC(=O)N[C@@H](CCC(=O)NCCCC[C@H](NC(=O)[C@H](CO)NC(=O)[C@H](CC(=O)O)NC(=O)[C@H](CC(C)C)NC(=O)[C@H](Cc1ccc(O)cc1)NC(=O)[C@H](CCCCN)NC(=O)[C@H](CO)NC(=O)[C@H](Cc1ccc(O)cc1)NC(=O)[C@H](CC(=O)O)NC(=O)[C@H](CO)NC(=O)[C@@H](NC(=O)[C@H](Cc1ccccc1)NC(=O)[C@@H](NC(=O)CNC(=O)[C@H](CCC(N)=O)NC(=O)[C@H](CO)NC(=O)[C@@H](N)Cc1c[nH]cn1)[C@@H](C)O)[C@@H](C)O)C(=O)N[C@@H](C)C(=O)N[C@@H](C)C(=O)N[C@@H](CCC(=O)O)C(=O)N[C@@H](CC(=O)O)C(=O)N[C@@H](Cc1ccccc1)C(=O)N[C@H](C(=O)N[C@@H](CCC(=O)O)C(=O)N[C@@H](Cc1c[nH]c2ccccc12)C(=O)N[C@@H](CC(C)C)C(=O)N[C@@H](CC(C)C)C(=O)N[C@@H](CCCNC(=N)N)C(=O)N[C@@H](C)C(N)=O)C(C)C)C(=O)O [Compound 7, H-HSQGTFTSDYSKYLDS-K(Hexadecanoyl-isoGlu)-AAEDFVEWLLRA-NH2] (H-HSQGTFTSDYSKYLDSK([γGlu-Palmitoyl])AAEDFVEWLLRA-NH2) | 9.35 | 9.08
CCCCCCCCCCCCCCCC(=O)N[C@@H](CCC(=O)NCCCC[C@H](NC(=O)[C@H](CO)NC(=O)[C@H](CC(=O)O)NC(=O)[C@H](CC(C)C)NC(=O)[C@H](Cc1ccc(O)cc1)NC(=O)[C@H](CCCCN)NC(=O)[C@H](CO)NC(=O)[C@H](Cc1ccc(O)cc1)NC(=O)[C@H](CC(=O)O)NC(=O)[C@H](CO)NC(=O)[C@@H](NC(=O)[C@H](Cc1ccccc1)NC(=O)[C@@H](NC(=O)CNC(=O)[C@H](CCC(N)=O)NC(=O)[C@H](CO)NC(=O)[C@@H](N)Cc1c[nH]cn1)[C@@H](C)O)[C@@H](C)O)C(=O)N[C@@H](C)C(=O)N[C@@H](C)C(=O)N[C@@H](Cc1c[nH]cn1)C(=O)N[C@@H](CC(=O)O)C(=O)N[C@@H](Cc1ccccc1)C(=O)N[C@H](C(=O)N[C@@H](CCC(=O)O)C(=O)N[C@@H](Cc1c[nH]c2ccccc12)C(=O)N[C@@H](CC(C)C)C(=O)N[C@@H](CC(C)C)C(=O)N[C@@H](CCCNC(=N)N)C(=O)N[C@@H](C)C(=O)O)C(C)C)C(=O)O [Compound 3, H-HSQGTFTSDYSKYLDS-K(Hexadecanoyl-isoGlu)-AAHDFVEWLLRA-OH] (H-HSQGTFTSDYSKYLDSK([γGlu-Palmitoyl])AAHDFVEWLLRA-OH) | 9.46 | 8.97
CCCCCCCCCCCCCCCC(=O)N[C@@H](CCC(=O)NCCCC[C@H](NC(=O)[C@H](CO)NC(=O)[C@H](CC(=O)O)NC(=O)[C@H](CC(C)C)NC(=O)[C@H](Cc1ccc(O)cc1)NC(=O)[C@H](CCCCN)NC(=O)[C@H](CO)NC(=O)[C@H](Cc1ccc(O)cc1)NC(=O)[C@H](CC(=O)O)NC(=O)[C@H](CO)NC(=O)[C@@H](NC(=O)[C@H](Cc1ccccc1)NC(=O)[C@@H](NC(=O)CNC(=O)[C@H](CCC(N)=O)NC(=O)[C@H](CO)NC(=O)[C@@H](N)Cc1c[nH]cn1)[C@@H](C)O)[C@@H](C)O)C(=O)N[C@@H](C)C(=O)N[C@@H](C)C(=O)N[C@@H](Cc1c[nH]cn1)C(=O)N[C@@H](CC(=O)O)C(=O)N[C@@H](Cc1ccccc1)C(=O)N[C@H](C(=O)N[C@@H](CCC(=O)O)C(=O)N[C@@H](Cc1c[nH]c2ccccc12)C(=O)N[C@@H](CC(C)C)C(=O)N[C@@H](CC(C)C)C(=O)N[C@@H](CO)C(=O)N[C@@H](C)C(=O)O)C(C)C)C(=O)O [Compound 2, H-HSQGTFTSDYSKYLDS-K(Hexadecanoyl-isoGlu)-AAHDFVEWLLSA-OH] (H-HSQGTFTSDYSKYLDSK([γGlu-Palmitoyl])AAHDFVEWLLSA-OH) | 9.51 | 8.85
CCCCCCCCCCCCCCCC(=O)N[C@@H](CCC(=O)NCCCC[C@H](NC(=O)[C@H](CCC(=O)O)NC(=O)[C@H](CC(=O)O)NC(=O)[C@H](CC(C)C)NC(=O)[C@H](Cc1ccc(O)cc1)NC(=O)[C@H](CCCCN)NC(=O)[C@H](CO)NC(=O)[C@H](Cc1ccc(O)cc1)NC(=O)[C@H](CC(=O)O)NC(=O)[C@H](CO)NC(=O)[C@@H](NC(=O)[C@H](Cc1ccccc1)NC(=O)[C@@H](NC(=O)CNC(=O)[C@H](CCC(N)=O)NC(=O)C(C)(C)NC(=O)[C@@H](N)Cc1c[nH]cn1)[C@@H](C)O)[C@@H](C)O)C(=O)N[C@@H](C)C(=O)N[C@@H](C)C(=O)N[C@@H](CCCCN)C(=O)N[C@@H](CC(=O)O)C(=O)N[C@@H](Cc1ccccc1)C(=O)N[C@H](C(=O)N[C@@H](CCC(=O)O)C(=O)N[C@@H](Cc1c[nH]c2ccccc12)C(=O)N[C@@H](CC(C)C)C(=O)N[C@@H](CCC(=O)O)C(=O)N[C@@H](CO)C(=O)N[C@@H](C)C(N)=O)[C@@H](C)CC)C(=O)O [Compound 15, H-H-Aib-QGTFTSDYSKYLDE-K(Hexadecanoyl-isoGlu)-AAKDFIEWLESA-NH2] | 9.21 | 9.52
CCCCCCCCCCCCCCCC(=O)N[C@@H](CCC(=O)NCCCC[C@H](NC(=O)[C@H](CO)NC(=O)[C@H](CC(=O)O)NC(=O)[C@H](CC(C)C)NC(=O)[C@H](Cc1ccc(O)cc1)NC(=O)[C@H](CCCCN)NC(=O)[C@H](CO)NC(=O)[C@H](Cc1ccc(O)cc1)NC(=O)[C@H](CC(=O)O)NC(=O)[C@H](CO)NC(=O)[C@@H](NC(=O)[C@H](Cc1ccccc1)NC(=O)[C@@H](NC(=O)CNC(=O)[C@H](CCC(N)=O)NC(=O)C(C)(C)NC(=O)[C@@H](N)Cc1c[nH]cn1)[C@@H](C)O)[C@@H](C)O)C(=O)N[C@@H](C)C(=O)N[C@@H](C)C(=O)N[C@@H](Cc1c[nH]cn1)C(=O)N[C@@H](CC(=O)O)C(=O)N[C@@H](Cc1ccccc1)C(=O)N[C@H](C(=O)N[C@@H](CCC(=O)O)C(=O)N[C@@H](Cc1c[nH]c2ccccc12)C(=O)N[C@@H](CC(C)C)C(=O)N[C@@H](CC(C)C)C(=O)N[C@@H](CO)C(=O)O)C(C)C)C(=O)O [Compound 1, H-H-Aib-QGTFTSDYSKYLDS-K(Hexadecanoyl-isoGlu)-AAHDFVEWLLS-OH] (H-H[Aib]QGTFTSDYSKYLDSK([γGlu-Palmitoyl])AAHDFVEWLLS-OH) | 9.05 | 8.83
CCCCCCCCCCCCCCCC(=O)N[C@@H](CCC(=O)NCCCC[C@H](NC(=O)[C@H](CCC(=O)O)NC(=O)[C@H](CC(=O)O)NC(=O)[C@H](CC(C)C)NC(=O)[C@H](Cc1ccc(O)cc1)NC(=O)[C@H](CCCCN)NC(=O)[C@H](CO)NC(=O)[C@H](Cc1ccc(O)cc1)NC(=O)[C@H](CC(=O)O)NC(=O)[C@H](CO)NC(=O)[C@@H](NC(=O)[C@H](Cc1ccccc1)NC(=O)[C@@H](NC(=O)CNC(=O)[C@H](CCC(N)=O)NC(=O)C(C)(C)NC(=O)[C@@H](N)Cc1c[nH]cn1)[C@@H](C)O)[C@@H](C)O)C(=O)N[C@@H](CCCNC(=N)N)C(=O)N[C@@H](C)C(=O)N[C@@H](CCCCN)C(=O)N[C@@H](CC(=O)O)C(=O)N[C@@H](Cc1ccccc1)C(=O)N[C@H](C(=O)N[C@@H](CCC(=O)O)C(=O)N[C@@H](Cc1c[nH]c2ccccc12)C(=O)N[C@@H](CC(C)C)C(=O)N[C@@H](CC(C)C)C(=O)N[C@@H](CO)C(=O)N[C@@H](C)C(=O)O)[C@@H](C)CC)C(=O)O [Compound 14, H-H-Aib-QGTFTSDYSKYLDE-K(Hexadecanoyl-isoGlu)-RAKDFIEWLLSA-OH] (H-H[Aib]QGTFTSDYSKYLDEK([γGlu-Palmitoyl])RAKDFIEWLLSA-OH) | 9.27 | 9.14
CCCCCCCCCCCCCCCC(=O)N[C@@H](CCC(=O)NCCCC[C@H](NC(=O)[C@H](CO)NC(=O)[C@H](CC(=O)O)NC(=O)[C@H](CC(C)C)NC(=O)[C@H](Cc1ccc(O)cc1)NC(=O)[C@H](CCCCN)NC(=O)[C@H](CO)NC(=O)[C@H](Cc1ccc(O)cc1)NC(=O)[C@H](CC(=O)O)NC(=O)[C@H](CO)NC(=O)[C@@H](NC(=O)[C@H](Cc1ccccc1)NC(=O)[C@@H](NC(=O)CNC(=O)[C@H](CCC(N)=O)NC(=O)C(C)(C)NC(=O)[C@@H](N)Cc1c[nH]cn1)[C@@H](C)O)[C@@H](C)O)C(=O)N[C@@H](C)C(=O)N[C@@H](C)C(=O)N[C@@H](Cc1c[nH]cn1)C(=O)N[C@@H](CC(=O)O)C(=O)N[C@@H](Cc1ccccc1)C(=O)N[C@H](C(=O)N[C@@H](CCC(=O)O)C(=O)N[C@@H](Cc1c[nH]c2ccccc12)C(=O)N[C@@H](CC(C)C)C(=O)N[C@@H](CC(C)C)C(=O)N[C@@H](CO)C(=O)N[C@@H](C)C(=O)O)C(C)C)C(=O)O [Compound 13, H-H-Aib-QGTFTSDYSKYLDS-K(Hexadecanoyl-isoGlu)-AAHDFVEWLLSA-OH] | 9.01 | 8.97
